Laboratory results as given in publication doi:10.1101/2025.07.30.667614, “Steric control of signaling bias in the immunometabolic receptor GPR84” (bioRxiv, 2025).

Legend:
GPR84 [1] = target: T1, GPR84 (Homo sapiens, UniProt Q9NQS5); assay: CHO-K1-based HitHunter cAMP inhibition assay; type: cell-based; settings: wild type GPR84; for EC50: CHO-K1 cells, forskolin 25 μM, read-out: cAMP pEC50 ± SEM (converted); for Emax: normalised to capric acid (100 μM), read-out: cAMP %Emax ± SEM
Procedure: CHO-K1 cells stably expressing human GPR84 (DiscoverX 95-0158C2) were seeded in 384-well plates at 15,000 cells per well in 20 μL of F12 medium supplemented with 10% fetal bovine serum (FBS), 19 mM HEPES, and 1% penicillin-streptomycin. After overnight incubation at 37 °C and 5% CO2, the medium was removed and replaced with PBS containing 0.1% BSA. Cells were stimulated for 30 min with forskolin (25 μM) and test compounds prepared in Dulbecco’s PBS (DPBS) with 0.1% BSA. Compounds were dissolved in DMSO and diluted appropriately. cAMP levels were quantified using the HitHunter® cAMP Assay for Small Molecules (DiscoverX 90-0075SM2) according to the manufacturer’s protocol. Luminescence was measured 18 h post-assay using a PHERAstar® FS plate reader (BMG Labtech).

GPR84 [2] = target: T1, GPR84; assay: CHO-K1-based PathHunter β-arrestin-2 recruitment assay; type: cell-based; set-up: host or cells: CHO-K1; settings: for Emax: read-out: β-arrestin-2 %Emax ± SEM; for EC50: wild type GPR84, CHO-K1 PathHunter, read-out: β-arrestin-2 pEC50 ± SEM (converted); for change in efficacy in β-arrestin-2 recruitment: compared to OX04929 (so in the source)
Procedure: Cells were stimulated with test ligands for 90 min. Compounds were prepared at 5× concentration in DPBS containing 0.1% BSA and 0.125% Tween-80 to minimise aggregation. β-arrestin recruitment was quantified using the PathHunter® β-Arrestin Assay (DiscoverX 93-0001) following the manufacturer’s instructions. Luminescence was recorded after 18 h using a PHERAstar® FS plate reader.

GPR84 N362S = target: T2, GPR84 N362S (Homo sapiens, UniProt Q9NQS5, N362S); assay: [35S]GTPγS binding assay; type: biochemical; settings: [35S]GTPγS; N362S; read-out: Emax ± SEM
T2 construct: FLAG (N); Gαi2-Cys352Ile (fusion partner) (C); expressed in transfected cells
T2 sequence (Q9NQS5 whole entry N362S, the tested form may be a part): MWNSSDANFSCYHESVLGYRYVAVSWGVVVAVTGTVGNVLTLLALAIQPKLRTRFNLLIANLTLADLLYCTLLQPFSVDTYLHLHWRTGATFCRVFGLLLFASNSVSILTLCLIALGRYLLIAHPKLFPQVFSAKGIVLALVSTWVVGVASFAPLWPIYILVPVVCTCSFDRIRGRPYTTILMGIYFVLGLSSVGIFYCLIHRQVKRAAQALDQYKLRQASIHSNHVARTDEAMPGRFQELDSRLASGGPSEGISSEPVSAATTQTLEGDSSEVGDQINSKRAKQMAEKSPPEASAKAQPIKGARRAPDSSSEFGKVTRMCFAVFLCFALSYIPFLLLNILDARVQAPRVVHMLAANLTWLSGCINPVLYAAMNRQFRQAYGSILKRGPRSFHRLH
Procedure: (§1) Membranes were generated from Flp-In™ T-REx™ 293 cells following 100 ng/ml doxycycline treatment to induce receptor expression. Cells were washed with ice-cold phosphate-buffered saline (PBS), removed from dishes by scraping and centrifuged at 1,800 x g for 5 min at 4 °C. Pellets were resuspended in TE buffer (10mM Tris-HCl, 0.1 mM EDTA; pH 7.4) containing a protease inhibitor mixture and homogenized with a 5 ml hand-held homogenizer. Samples were centrifuged at 450 x g for 5 min at 4 °C and the supernatant was further centrifuged at 90,000 x g for 45 min at 4 °C. The resulting pellet was resuspended in TE buffer and protein content was assessed using a BCA protein assay kit.
(§2) Prepared membrane protein (3 μg per well) was incubated in assay buffer (20 mM HEPES, 5 mM MgCl2, 160 mM NaCl, 0.05 % fatty-acid-free bovine serum albumin; pH 7.4) containing the indicated ligand concentrations. The reaction was initiated by addition of [^35S]GTPγS (100 nCi per reaction) with 1 μM GDP, and incubated at 30 °C for 60 min. The reaction was terminated by rapid vacuum filtration through GF/C glassfibre filter-bottom 96-well microplates using a UniFilter FilterMate Harvester (PerkinElmer). Unbound radioligand was removed from filters by three washes with ice-cold PBS. Ultima Gold™ XR was added to dried filters, and [^35S]GTPγS binding quantified by liquid scintillation spectroscopy.

GPR84 Y332A = target: T3, GPR84 Y332A (Homo sapiens, UniProt Q9NQS5, Y332A); assay: [35S]GTPγS binding assay; type: biochemical; settings: [35S]GTPγS; Y332A; read-out: Emax ± SEM
T3 construct: FLAG (N); Gαi2-Cys352Ile (fusion partner) (C); expressed in transfected cells
T3 sequence (Q9NQS5 whole entry Y332A, the tested form may be a part): as the sequence (Q9NQS5 whole entry N362S, the tested form may be a part) above, with Y332A, S362N counted along it
Procedure: as §1, §2

GPR84 Y332F = target: T4, GPR84 Y332F (Homo sapiens, UniProt Q9NQS5, Y332F); assay: [35S]GTPγS binding assay; type: biochemical; settings: [35S]GTPγS; Y332F; read-out: Emax ± SEM
T4 construct: FLAG (N); Gαi2-Cys352Ile (fusion partner) (C); expressed in transfected cells
T4 sequence (Q9NQS5 whole entry Y332F, the tested form may be a part): as the sequence (Q9NQS5 whole entry N362S, the tested form may be a part) above, with Y332F, S362N counted along it
Procedure: as §1, §2

[3] = target: T5, GPR84 N104A (GPR84-Gi2α fusion protein) (Homo sapiens, UniProt Q9NQS5, N104A); assay: [35S]GTPγS binding assay; type: biochemical; settings: [35S]GTPγS; N104A; read-out: Emax ± SEM
T5 construct: FLAG (N); Gαi2-Cys352Ile (fusion partner) (C); expressed in transfected cells
T5 sequence (Q9NQS5 whole entry N104A, the tested form may be a part): as the sequence (Q9NQS5 whole entry N362S, the tested form may be a part) above, with N104A, S362N counted along it
Procedure: as §1, §2

[4] = target: T6, GPR84 R172A (GPR84-Gi2α fusion protein) (Homo sapiens, UniProt Q9NQS5, R172A); assay: [35S]GTPγS binding assay; type: biochemical
T6 construct: FLAG (N); Gαi2-Cys352Ile (fusion partner) (C); expressed in transfected cells
T6 sequence (Q9NQS5 whole entry R172A, the tested form may be a part): as the sequence (Q9NQS5 whole entry N362S, the tested form may be a part) above, with R172A, S362N counted along it
Procedure: as §1, §2

[5] = target: T7, GPR84 S169A (GPR84-Gi2α fusion protein) (Homo sapiens, UniProt Q9NQS5, S169A); assay: [35S]GTPγS binding assay; type: biochemical; settings: [35S]GTPγS; S169A; read-out: Emax ± SEM
T7 construct: FLAG (N); Gαi2-Cys352Ile (fusion partner) (C); expressed in transfected cells
T7 sequence (Q9NQS5 whole entry S169A, the tested form may be a part): as the sequence (Q9NQS5 whole entry N362S, the tested form may be a part) above, with S169A, S362N counted along it
Procedure: as §1, §2

[6] = target: T8, GPR84 T167A (GPR84-Gi2α fusion protein) (Homo sapiens, UniProt Q9NQS5, T167A); assay: [35S]GTPγS binding assay; type: biochemical; settings: [35S]GTPγS; T167A; read-out: Emax ± SEM
T8 construct: FLAG (N); Gαi2-Cys352Ile (fusion partner) (C); expressed in transfected cells
T8 sequence (Q9NQS5 whole entry T167A, the tested form may be a part): as the sequence (Q9NQS5 whole entry N362S, the tested form may be a part) above, with T167A, S362N counted along it
Procedure: as §1, §2

[7] = target: T9, GPR84 W360A (GPR84-Gi2α fusion protein) (Homo sapiens, UniProt Q9NQS5, W360A); assay: [35S]GTPγS binding assay; type: biochemical; settings: [35S]GTPγS; W360A; read-out: Emax ± SEM
T9 construct: FLAG (N); Gαi2-Cys352Ile (fusion partner) (C); expressed in transfected cells
T9 sequence (Q9NQS5 whole entry W360A, the tested form may be a part): as the sequence (Q9NQS5 whole entry N362S, the tested form may be a part) above, with W360A, S362N counted along it
Procedure: as §1, §2

[8] = target: T10, GPR84 Y69A (GPR84-Gi2α fusion protein) (Homo sapiens, UniProt Q9NQS5, Y69A); assay: [35S]GTPγS binding assay; type: biochemical; settings: [35S]GTPγS; Y69A; read-out: Emax ± SEM
T10 construct: FLAG (N); Gαi2-Cys352Ile (fusion partner) (C); expressed in transfected cells
T10 sequence (Q9NQS5 whole entry Y69A, the tested form may be a part): as the sequence (Q9NQS5 whole entry N362S, the tested form may be a part) above, with Y69A, S362N counted along it
Procedure: as §1, §2

[9] = target: T11, GPR84 Y81A (GPR84-Gi2α fusion protein) (Homo sapiens, UniProt Q9NQS5, Y81A); assay: [35S]GTPγS binding assay; type: biochemical; settings: [35S]GTPγS; Y81A; read-out: Emax ± SEM
T11 construct: FLAG (N); Gαi2-Cys352Ile (fusion partner) (C); expressed in transfected cells
T11 sequence (Q9NQS5 whole entry Y81A, the tested form may be a part): as the sequence (Q9NQS5 whole entry N362S, the tested form may be a part) above, with Y81A, S362N counted along it
Procedure: as §1, §2

[10] = target: GPR84-WT (GPR84-Gi2α fusion protein) (Homo sapiens, UniProt Q9NQS5); assay: [35S]GTPγS binding assay; type: biochemical; settings: [35S]GTPγS, GPR84-WT; for EC50: Extended Data Table 3, read-out: pEC50 ± SEM (converted)
GPR84-WT (GPR84-Gi2α fusion protein), sequence (Q9NQS5 whole entry, the tested form may be a part): as the sequence (Q9NQS5 whole entry N362S, the tested form may be a part) above, with S362N counted along it
GPR84-WT (GPR84-Gi2α fusion protein), sequence (P04899 with tags, fused parts or gaps C352I partner): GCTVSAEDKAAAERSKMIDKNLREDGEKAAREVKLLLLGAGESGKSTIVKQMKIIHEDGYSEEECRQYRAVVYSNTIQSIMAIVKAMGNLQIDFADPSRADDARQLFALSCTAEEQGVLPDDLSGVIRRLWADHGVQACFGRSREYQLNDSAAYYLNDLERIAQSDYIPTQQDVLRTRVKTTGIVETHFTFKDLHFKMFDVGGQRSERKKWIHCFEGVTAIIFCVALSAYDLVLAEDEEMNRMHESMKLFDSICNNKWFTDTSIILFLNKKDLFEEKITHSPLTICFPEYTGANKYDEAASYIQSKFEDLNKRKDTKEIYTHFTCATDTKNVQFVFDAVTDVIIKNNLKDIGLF
Procedure: as §1, §2

wild type GPR84 = target: T12, wild type GPR84 (Homo sapiens, UniProt Q9NQS5); assay: pThr263/pThr264 immunoblot of immunoprecipitated GPR84-eYFP; type: cell-based; settings: 1 μM
T12 construct: expressed in transfected cells
T12 sequence (Q9NQS5 whole entry): as the sequence (Q9NQS5 whole entry N362S, the tested form may be a part) above, with S362N counted along it
Procedure: eYFP-linked receptor constructs were immunoprecipitated from 200 μl cell lysates using GFP-Trap® agarose beads (Proteintech) according to manufacturer’s instructions. Immunocomplexes were washed three times in washing buffer, resuspended in 100 μl 2 × SDS-PAGE sample buffer and incubated at 60 °C for 10 min. Following centrifugation at 2500g for 5 min, 20 μl of immunoprecipitated proteins was resolved by SDS-PAGE on 4% to 12% BisTris gels. After separation, the proteins were transferred electrophoretically onto nitrocellulose membrane, which was then blocked using 5% bovine serum albumin (BSA) in Tris-buffered saline (TBS, 50 mM Tris-Cl, 150 mM NaCl, pH 7.6) for 1 h at room temperature on an orbital shaker. The membrane was then incubated with appropriate primary antibody in 5% BSA in TBS supplemented with 0.1% Tween (TBS-T) overnight at 4 °C. Anti-pThr^263/pThr^264 antiserum was diluted 1:2000 and anti-GFP was diluted 1:10,000. Subsequently, the membrane was washed (3 × 10 min with TBS-T) and incubated for 2 h with anti-rabbit secondary antibody diluted 1:10,000 in 5% BSA in TBS-T. After washing (3 × 10 min with TBS-T), proteins were detected using an Odyssey imaging system (Licor) according to the manufacturer’s instructions.

T1 sequence (Q9NQS5 whole entry): as the sequence (Q9NQS5 whole entry N362S, the tested form may be a part) above, with S362N counted along it

SMILES | EC50 (GPR84 [1]) [nM] | Emax (GPR84 [1]) [%] | Emax (GPR84 [2]) [%] | EC50 (GPR84 [2]) [nM] | change in efficacy in β-arrestin-2 recruitment (GPR84 [2]) | further results
[O-][n+]1cc(O)cc(CCCCc2ccc(Cl)c(Cl)c2)c1 [OX04957] | 0.0389 | 102 ± 3 | 46 ± 5.8 | 209 |  | 
Fc1cc(F)c2[nH]cc(Cc3c[nH]c4c(F)cc(F)cc34)c2c1 [PSB-16671, di(5,7-difluoro-1H-indole-3-yl)methane, reference compound] |  |  |  |  |  | Emax (GPR84 N362S): 100%; Emax (GPR84 Y332A): 100%; Emax (GPR84 Y332F): 100%
[O-][n+]1cc(O)cc(CCCCc2ccc(Cl)c(CO)c2)c1 [OX04955] | 0.0355 | 101 ± 1.5 | 21 ± 2.9 | 263 |  | 
CCCCCCCc1cc(O)c[n+]([O-])c1 [OX04539] |  | 100 ± 0.8 | 100 |  |  | Emax [3]: 150 ± 23%; Emax (GPR84 N362S): 196 ± 32%; Emax [4]: 42 ± 4%; Emax [5]: 84 ± 4%; Emax [6]: 139 ± 7%; Emax [7]: 94 ± 13%; Emax (GPR84 Y332A): 57 ± 10%; Emax (GPR84 Y332F): 167 ± 2%; Emax [8]: 101 ± 14%; Emax [9]: 134 ± 5%; Emax ([10]; Extended Data Tables 1 and 5, read-out: Emax ± SEM): 150 ± 14%; phosphorylation of Thr263 and Thr264 (immunoblot) (wild type GPR84): promoted phosphorylation
[O-][n+]1cc(O)cc(CCCCc2ccc(Cl)c(C(F)F)c2)c1 [OX04959] | 0.00724 | 95 ± 11.5 | 24 ± 2.3 | 151 |  | EC50 [10]: 3.98 nM
CCc1cc(CCCCc2cc(O)c[n+]([O-])c2)ccc1Cl [OX04961] | 0.0112 | 103 ± 3.6 | 21 ± 0.3 | 39.8 | no significant change | 
[O-][n+]1cc(O)cc(CCCCc2ccc(Cl)c(CF)c2)c1 [OX04960] | 0.0102 | 107 ± 2.1 | 45 ± 1.2 | 447 |  | EC50 [10]: 6.31 nM
[O-][n+]1cc(O)cc(CCCCc2ccc(Cl)c(Br)c2)c1 [OX04956] | 0.00912 | 98 ± 2.1 | 34 ± 6 | 138 |  | 
C=Cc1cc(CCCCc2cc(O)c[n+]([O-])c2)ccc1Cl [OX04962] | 0.00933 | 97 ± 3.4 | 18 ± 2.2 | 178 | no significant change | 
CC(C)c1cc(CCCCc2cc(O)c[n+]([O-])c2)ccc1Cl [OX04964] | 0.0145 | 94 ± 7.4 | 9 ± 1.4 |  | no significant change | 
[O-][n+]1cc(O)cc(CCCCc2ccc(Cl)c(C3CC3)c2)c1 [OX04965] | 0.00398 | 103 ± 3.7 | 9 ± 3 |  | no significant change | 
CC1(c2cc(CCCCc3cc(O)c[n+]([O-])c3)ccc2Cl)CC1 [OX04966] | 0.17 | 107 ± 5.6 | 5 ± 1.5 |  | no significant change | 
[O-][n+]1cc(O)cc(CCCCc2ccc(Cl)c(F)c2)c1 [OX04958] | 0.0407 | 99 ± 0.1 | 72 ± 1.3 | 70.8 |  | 
[O-][n+]1cc(O)cc(CCCCc2ccc(Cl)cc2)c1 [OX04540] | 0.0204 | 97 ± 0.7 | 81 ± 5.3 | 110 |  | 
C#Cc1cc(CCCCc2cc(O)c[n+]([O-])c2)ccc1Cl [OX04963] | 0.00646 | 106 ± 3.8 | 15 ± 1.1 | 37.2 |  | 
